#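 Results reflect a 48-hour exposure of cells in 96-well plates to compound at five concentrations. The concentration for 50% growth inhibition is given as GI50.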 Active and inactive are the calls of the source. Cut-off read from the data, not from the text of the source: active = GI50 up to about 1.1 µM and inactive = higher.
# What was measured:
# Assay in all cases: inhibition of tumour cell growth, NCI panel, 48 h
# BT-549 = system: BT-549
# Hs-578T = system: Hs-578T
# DLD-1 = system: DLD-1
# HOP-18 = system: HOP-18
# KM-20L2 = system: KM-20L2
# M19-MEL = system: M19-MEL
# SNB-78 = system: SNB-78
# XF498 = system: XF498
SMILES,GI50 (BT-549),GI50 (Hs-578T),GI50 (DLD-1),GI50 (HOP-18),GI50 (KM-20L2),GI50 (M19-MEL),GI50 (SNB-78),GI50 (XF498)
O=C1c2ccccc2C(=O)c2c(OCC3CO3)ccc(OCC3CO3)c21 (stereo not given),6.28 µM (inactive),16.2 µM (inactive),–,–,–,–,–,–
NS(=O)(=O)c1ccc(/N=N/c2ncccc2O)cc1,> 100 µM (inactive),> 100 µM (inactive),–,–,–,–,–,–
Cc1cc(=O)oc2cc(O)c(CN(C)CC(=O)O)cc12,> 100 µM (inactive),> 100 µM (inactive),–,–,–,–,–,–
C=CCNS(=O)(=O)c1ncnc2[nH]cnc12,> 100 µM (inactive),> 100 µM (inactive),–,–,–,–,–,–
Cc1nc(O)c(Cc2ccccc2O)c(-c2ccccc2)n1,> 100 µM (inactive),> 100 µM (inactive),–,–,–,–,–,–
CN1CCN(CCCN2c3ccccc3Sc3ccc(C(F)(F)F)cc32)CC1,14.5 µM (inactive),4.35 µM (inactive),13.8 µM (inactive),9.89 µM (inactive),2.27 µM (inactive),1.87 µM (inactive),15.7 µM (inactive),–
CN(C)Cc1nsc(N(C)C)n1,> 100 µM (inactive),> 100 µM (inactive),–,–,–,–,–,–
CC1C(=O)C(C)C(c2ccccc2)N(N=O)C1c1ccccc1 (stereo not given),> 100 µM (inactive),46.7 µM (inactive),> 100 µM (inactive),> 100 µM (inactive),> 1000 µM (inactive),> 100 µM (inactive),> 47 µM (inactive),19.4 µM (inactive)
COC1(OC)c2ccccc2C2(O)c3ccccc3C(=O)C12 (stereo not given),–,–,–,52 µM (inactive),40.6 µM (inactive),34.7 µM (inactive),64.4 µM (inactive),17.8 µM (inactive)
CC1=NN2C(c3ccc(C)cc3)=CSC2=NC(C)(C)C1,–,–,> 100 µM (inactive),> 100 µM (inactive),> 100 µM (inactive),> 100 µM (inactive),> 100 µM (inactive),54 µM (inactive)
Cc1ccc(S[C@@H](C)[C@@](O)(CF)CN(Cc2ccccc2)C(=O)C(F)(F)F)cc1,19.6 µM (inactive),18.3 µM (inactive),–,–,–,–,–,–
CC(=O)NNc1nc(C)c(C(=O)NNC(=O)C(=O)Nc2ccc(Cl)c([N+](=O)[O-])c2)s1,–,–,–,–,> 100 µM (inactive),67.8 µM (inactive),45.8 µM (inactive),42.6 µM (inactive)
CC1(C)CCC[C@@]2(C)C1C(=O)[C@@H]1O[C@]1(C)[C@@H]2CO (stereo not given in full),16.9 µM (inactive),34.3 µM (inactive),–,–,–,–,–,–
CCOC(=O)Nc1cc(NC(/C=N/NC(C)=O)C(=O)OCC)c(OC)cc1NC(C)=O (stereo not given),> 100 µM (inactive),> 100 µM (inactive),–,–,–,–,–,–
O=C1N[C@@H](c2c[nH]c3ccc(Br)cc23)C(=O)N[C@H]1c1c[nH]c2ccc(Br)cc12,13.6 µM (inactive),11 µM (inactive),–,–,–,–,–,–
O=C(Nc1ccccc1)c1ccc(Cl)c([N+](=O)[O-])c1,–,–,23.4 µM (inactive),–,13.5 µM (inactive),12.5 µM (inactive),17.3 µM (inactive),18 µM (inactive)

SMILES,GI50 (BT-549),GI50 (Hs-578T),GI50 (DLD-1),GI50 (HOP-18),GI50 (KM-20L2),GI50 (M19-MEL),GI50 (SNB-78),GI50 (XF498)
COC(=O)c1nsc(OC)c1Cl,> 100 µM (inactive),> 100 µM (inactive),–,–,–,–,–,–
CC(NC(=O)C(=O)N/N=C1\C[C@@H](c2ccccc2)Nc2ccccc21)c1ccccc1 (stereo not given in full),–,–,> 100 µM (inactive),< 0.01 µM (active),> 100 µM (inactive),> 100 µM (inactive),> 100 µM (inactive),18.3 µM (inactive)
CCC1OC2C(CC=C(C)C)=C3OC(C)(O)C(C)(CC)C(=O)C3=C3OC(=O)C=C1C32 (stereo not given),15.1 µM (inactive),–,–,–,–,–,–,–
C=C(C)C1CCC2=CC(CC3(C)OC3C3=CC(C(=O)OC)=C(C1)O3)OC2=O (stereo not given),> 100 µM (inactive),–,–,–,–,–,–,–
NCc1c(C(N)=O)ncn1Cc1ccccc1,–,–,–,> 100 µM (inactive),> 100 µM (inactive),> 100 µM (inactive),> 100 µM (inactive),> 100 µM (inactive)
CCCCCCCC/C=C\CCCCCCC/C=C1\C[C@](/C=C/C(=O)OC)(CO)OC1=O,2.33 µM (inactive),1.25 µM (inactive),–,–,–,–,–,–
CCCCc1ccc(Nc2nc3c(ncn3COCCBr)c(=O)[nH]2)cc1,> 100 µM (inactive),> 100 µM (inactive),–,–,–,–,–,–
CC(=O)NNc1nc(C)c(C(/C=C/c2ccc(Cl)cc2)=N/NC(=O)C[N+](C)(C)C)s1,–,–,> 100 µM (inactive),> 100 µM (inactive),> 100 µM (inactive),> 100 µM (inactive),–,–
NC(=O)c1ccc(NCC2=CC(=O)C=CC2=O)cc1,15.5 µM (inactive),30.3 µM (inactive),–,–,–,–,–,–
C=CCn1c(-c2ccc([N+](=O)[O-])cc2)csc1=N,92.5 µM (inactive),> 100 µM (inactive),–,–,–,–,–,–
Cc1ccc(S(=O)(=O)N2CCCSCCSCCCSCC2)cc1,> 100 µM (inactive),–,–,–,–,–,–,–
CCOC(=O)c1c(C)n(Cc2ccccc2)c(=O)c2ccccc2c(=O)c2c(=O)ccc(=O)c1=2,–,> 100 µM (inactive),–,–,–,–,–,–
COc1cc(C2c3cc4c(cc3C(O)C3CCC(=O)N23)OCO4)cc(OC)c1OC (stereo not given),14.9 µM (inactive),34.5 µM (inactive),–,–,–,–,–,–
CO[C@@H]1C[C@H]2[C@@H]3CC[C@H]([C@H](C)COC(C)=O)[C@@]3(C)CC[C@@H]2[C@@]2(C)CC[C@H]3C[C@]312,–,> 100 µM (inactive),–,–,–,–,–,–
Cc1ccc(S(=O)(=O)N/N=C(\C(=O)Nc2cccc([N+](=O)[O-])c2)c2nc3ccc([N+](=O)[O-])cc3nc2O)cc1,–,–,> 100 µM (inactive),–,–,43.7 µM (inactive),> 100 µM (inactive),–
